Paper PMC12018195, “A conserved phosphorylation mechanism for regulating the interaction between the CMG replicative helicase and its forked DNA substrate” (The Journal of Biological Chemistry, 2025)

Experiments:
Experiment in all cases: radiometric kinase assay, SDS-PAGE
Assay type in all cases: biochemical
human (Hs) Chk2 = molecular target: T1, human (Hs) Chk2 (Homo sapiens, UniProt O96017); details: phosphate donor, 300 μM ATP spiked with labelled compound; acceptor histone H1 / Cdc25 peptide; 10 mM Mg acetate, pH 7.6, 30 °C
T1 construct: gene CHEK2
T1 sequence (O96017 whole entry): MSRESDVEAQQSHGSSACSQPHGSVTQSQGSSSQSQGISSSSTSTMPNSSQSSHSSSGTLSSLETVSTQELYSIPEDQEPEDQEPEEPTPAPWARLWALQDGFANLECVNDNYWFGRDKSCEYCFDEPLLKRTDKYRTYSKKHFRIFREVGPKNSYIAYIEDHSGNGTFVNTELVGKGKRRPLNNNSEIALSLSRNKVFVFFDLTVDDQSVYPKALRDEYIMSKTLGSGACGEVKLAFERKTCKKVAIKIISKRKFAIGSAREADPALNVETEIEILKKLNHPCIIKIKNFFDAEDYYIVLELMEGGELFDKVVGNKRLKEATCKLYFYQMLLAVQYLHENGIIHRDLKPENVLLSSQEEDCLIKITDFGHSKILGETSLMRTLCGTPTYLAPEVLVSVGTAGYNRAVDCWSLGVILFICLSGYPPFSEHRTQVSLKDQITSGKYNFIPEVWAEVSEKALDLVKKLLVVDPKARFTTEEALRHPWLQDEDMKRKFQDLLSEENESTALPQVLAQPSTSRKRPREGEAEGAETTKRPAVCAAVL

mouse (Mm) Chk2 = molecular target: T2, mouse (Mm) Chk2 (Mus musculus, UniProt Q9Z265); details: phosphate donor, 300 μM ATP spiked with labelled compound; acceptor histone H1 / Cdc25 peptide; 10 mM Mg acetate, pH 7.6, 30 °C
T2 construct: gene Chek2
T2 sequence (Q9Z265 whole entry): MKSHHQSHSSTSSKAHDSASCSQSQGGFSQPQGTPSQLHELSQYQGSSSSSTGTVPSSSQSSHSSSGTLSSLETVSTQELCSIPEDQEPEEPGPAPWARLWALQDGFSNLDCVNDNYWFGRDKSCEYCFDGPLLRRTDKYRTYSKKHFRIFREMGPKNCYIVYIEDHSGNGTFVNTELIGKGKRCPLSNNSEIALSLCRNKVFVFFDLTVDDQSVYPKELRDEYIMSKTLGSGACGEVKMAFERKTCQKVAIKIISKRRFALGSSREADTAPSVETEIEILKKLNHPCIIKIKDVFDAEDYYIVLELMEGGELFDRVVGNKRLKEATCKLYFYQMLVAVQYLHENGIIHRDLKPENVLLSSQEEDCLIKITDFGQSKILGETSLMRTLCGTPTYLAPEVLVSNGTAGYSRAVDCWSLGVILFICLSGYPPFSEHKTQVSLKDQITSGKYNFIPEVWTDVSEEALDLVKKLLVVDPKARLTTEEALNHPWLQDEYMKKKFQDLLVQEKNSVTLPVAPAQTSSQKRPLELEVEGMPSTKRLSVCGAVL

human (Hs) Chk1 = molecular target: T3, human (Hs) Chk1 (Homo sapiens, UniProt O14757); details: phosphate donor, 300 μM ATP spiked with labelled compound; acceptor MCM2-7 / CMG / histone H1; 10 mM Mg acetate, pH 7.6, 30 °C
T3 construct: gene CHEK1
T3 sequence (O14757 1-476): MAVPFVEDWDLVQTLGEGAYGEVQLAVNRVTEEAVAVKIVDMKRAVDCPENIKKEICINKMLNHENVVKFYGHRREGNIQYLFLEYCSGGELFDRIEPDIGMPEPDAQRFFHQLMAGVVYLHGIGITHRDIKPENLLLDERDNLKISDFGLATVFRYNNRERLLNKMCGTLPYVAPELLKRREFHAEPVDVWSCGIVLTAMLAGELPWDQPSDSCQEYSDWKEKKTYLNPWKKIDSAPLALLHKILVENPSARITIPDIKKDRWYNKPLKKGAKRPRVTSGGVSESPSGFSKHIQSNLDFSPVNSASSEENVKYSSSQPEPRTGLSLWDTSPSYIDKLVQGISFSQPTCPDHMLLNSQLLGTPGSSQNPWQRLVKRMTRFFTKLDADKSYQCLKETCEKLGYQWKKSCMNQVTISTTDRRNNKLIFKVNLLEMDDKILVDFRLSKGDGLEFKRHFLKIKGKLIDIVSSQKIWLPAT

Drosophila (Dm) Chk1 = molecular target: T4, Drosophila (Dm) Chk1 (Drosophila melanogaster, UniProt O61661); details: phosphate donor, 300 μM ATP spiked with labelled compound; acceptor MCM2-7 / CMG / histone H1; 10 mM Mg acetate, pH 7.6, 30 °C
T4 construct: gene grp
T4 sequence (O61661 1-512): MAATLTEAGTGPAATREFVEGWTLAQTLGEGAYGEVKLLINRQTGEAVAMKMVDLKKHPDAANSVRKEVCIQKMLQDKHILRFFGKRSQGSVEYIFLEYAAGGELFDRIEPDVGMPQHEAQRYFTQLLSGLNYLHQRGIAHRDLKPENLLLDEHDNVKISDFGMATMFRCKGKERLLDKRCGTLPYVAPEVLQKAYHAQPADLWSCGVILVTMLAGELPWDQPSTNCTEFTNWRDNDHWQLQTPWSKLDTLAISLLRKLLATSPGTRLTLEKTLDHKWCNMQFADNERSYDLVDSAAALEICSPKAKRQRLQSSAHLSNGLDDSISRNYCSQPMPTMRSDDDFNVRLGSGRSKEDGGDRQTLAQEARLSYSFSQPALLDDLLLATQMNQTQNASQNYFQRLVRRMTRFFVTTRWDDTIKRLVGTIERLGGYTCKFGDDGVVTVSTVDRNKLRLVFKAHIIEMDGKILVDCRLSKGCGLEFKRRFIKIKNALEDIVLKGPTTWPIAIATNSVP

Nc1ncnc2c1ncn2[C@@H]1O[C@H](COP(=O)(O)OP(=O)(O)OP(=O)(O)O)[C@@H](O)[C@H]1O [ATP]
radiometric kinase assay, SDS-PAGE (human (Hs) Chk2): human and mouse Chk2 were able to efficiently phosphorylate Cdc25 and histone H1 control substrates | radiometric kinase assay, SDS-PAGE (mouse (Mm) Chk2): human and mouse Chk2 were able to efficiently phosphorylate Cdc25 and histone H1 control substrates | radiometric kinase assay, SDS-PAGE (human (Hs) Chk1): The Chk1 proteins from Drosophila and humans phosphorylated MCM2-7 with similar efficiency | radiometric kinase assay, SDS-PAGE (Drosophila (Dm) Chk1): Drosophila Chk1 phosphorylated, on average, close to one residue per MCM2-7 complex
